Results published in publication PMC9486541, “Design, synthesis and cytotoxic evaluation of novel betulonic acid-diazine derivatives as potential antitumor agents” (Frontiers in Chemistry, 2022).

Tests used:
MCF-7 = assay: MTT assay, MCF-7 cells; assay type: cell-based, human; settings: Homo sapiens, MCF7, 72 h incubation, read-out: Half maximal inhibitory concentration (IC50) values, MCF-7
From the text: The human hepatocellular carcinoma cell line (HepG2), human hepatocellular carcinoma cell line (Bel-7402), human cervical cancer cell line (Hela), human breast adenocarcinoma cell line (MCF-7) and Madin-Darby canine kidney cell line (MDCK) were obtained from the Chinese Academy of Medical Sciences and Peking Union Medical College. Cultures were maintained as monolayer in RPMI-1640/DMEM supplemented with 10% (v/v) fetal bovine serum (FBS) and 1% (v/v) penicillin/streptomycin (Thermo Technologies, New York, NY, United States) under a humidified atmosphere containing 5% CO2 at 37°C. The BoA derivatives and positive control drugs (BoA and DDP) under study were dissolved in DMSO (Sigma, St. Louis, MO, United States) and added at required concentrations to the cell culture. Cells incubated without the preparations served as the control.
The antitumor activity was assessed by MTT assay, as previously reported ([Fang et al., 2018]). Each tested compound and positive control drugs were dissolved in DMSO and diluted with the medium to the test concentrations, and the final concentration of DMSO in the culture medium was controlled at less than 0.5% (v/v). Briefly, cells were cultured at 37°C and dispersed in replicates in 96-well plates with HepG2, Bel-7402, HeLa, MCF-7 and MDCK for 24 h. Fresh medium along with compounds (BoAA-BoAE, BoA2A-BoA2G, BoA3A-BoA3G, BoA4A-BoA4G) at different concentrations was then added to individual wells and incubated for 72 h, with BoA and DDP as the positive control. Experiments on FXR expression were separated into three groups: Control (PBS), BoA2C (8 μM), and BoA2C (8 μM) + DY268 (10 μM) ([Giordano et al., 2016]), with three repeating wells in each. In separate wells, BoA2C and DY268 were introduced and cultured for 72 h. After 72 h, the cell was incubated with MTT solution (0.5 mg/ml) for an additional 4 h at 37°C. The produced formazan crystals were solubilized with DMSO, and the optical density of solution was measured at 570 nm using a plate reader (BIORAD 550 spectrophotometer, Bio-rad Life Science Development Ltd., Beijing, China). Wells without drugs were used to be blanks. The IC50 values were defined as the concentration of compounds that produced a 50% proliferation inhibition of surviving cells and calculated using the Graph Pad Prism 5. The inhibitory rate was calculated in the following Equation 1, where OD is the optical density: % inhibition=[1−(OD Sample group−OD Blank group)/(OD Control group−OD Blank group)]×100% (1)

MCF-7 cells = assay: Cellular metabolomics study (LC-MS); assay type: cell-based, human; settings: MCF-7, BoA2C (2 μM) 72 h, BoA2C and Control groups
Description: To eliminate excess medium, cells were washed twice with 1 ml of PBS solution. The wells were then filled with 2 ml of ACN: MeOH: H2O 50:30:20 (v/v) and placed in the freezer for 20 min. The extracts obtained in an Eppendorf tube after the cells were scraped and vortexed. The mixture was then centrifuged for 10 min at 10,000 rpm and 4°C, and the supernatant was collected and dried with an evaporator. 300 μl MeOH was used for reconstitution. 15 μL of the reconstituted extract was mixed with 15 μl H2O and […] ACN for the metabolomics analysis of the intracellular material. After centrifugation (10 min, 4°C, 11,800 g), the supernatant was transferred to an LC-MS vial for analysis.
An Acquity UPLC HSS T3 column (1.8 μm 100 × 2.1 mm) using an UltiMate 3000 high performance LC system coupled to Q Exactive MS was used for metabolic profiling ([Shu et al., 2020]). At a flow rate of 0.3 ml/min, mobile phase A (water containing 0.1% acid) and mobile phase B (methanol) were used. A was reduced from 80 % to 70% from 0 to 2 min, A was reduced to 55% from 2 to 5 min, A was reduced to 40% from 5 to 6.5 min, A was reduced to 35% from 6.5 to 12 min, A was last reduced to 0 from 12 to 18 min. The gradient of the mobile phase was as follows: The column oven temperature was set to 40°C, and the autosampler temperature was set to 4°C. The injection volume was 1 μl. MS used electron spray ionization to operate in both positive and negative ionization modes (ESI). To assess the stability and repeatability of the LC-MS-based metabolomics method, quality control (QC) samples were used. Each QC sample was made by combining five samples of the same volume (100 μL) in the order of analysis. To ensure the system method’s stable operation, all combined QC samples for running all QC samples made by every five samples before analysis. After five samples were tested during the analysis run, the combined QC samples of the five samples were taken.
Mass spectrometry data of metabolites in MCF-7 cells was used for metabolomics investigation after co-cultivation with BoA2C (2 μM) for 72 h. The effectiveness of the OPLS-DA model to distinguish between the BoA2C and Control groups was assessed using the success criterion of R^2 ≥ 0.7 and Q^2 ≥ 0.4 ([Martin-Blazquez et al., 2019]). […] VIP-plots were investigated using the OPLS-DA models to examine important factors that led to the differentiation of the metabolome between the BoA2C and Control groups. Variables having a VIP value greater than 1 were deemed significant contenders. Matching retention time and MS fragmentation patterns from the MetaboAnalyst (version 5.0) database verified the presence of distinct metabolites ([Pang et al., 2021]). These metabolites were further categorized based on their characteristics, including amino acids, amines, aliphatic acids and bile acids. All differential metabolites were loaded into MetaboAnalyst (version 5.0) for metabolic analysis to further explain the fundamental mechanisms of BoA2C’s cytotoxic impact on breast carcinoma cells. In accordance with the described guidelines, the Homo sapiens pathway library and Fisher’s exact test were used for route enrichment analysis, while relative-betweeness centrality was used for pathway topology analysis ([Pang et al., 2021]). The impacted metabolic pathways were defined as those with a pathway effect value more than 0.10 and a p value less than 0.05. […] Six of them (Figure 7B, Table 3) were primarily involved: 1) arginine and proline metabolism 2) linoleate metabolism 3) bile acid biosynthesis 4) de novo fatty acid biosynthesis 5) fatty acid activation, and (VI) fatty Acid Metabolism.

[1] = Arginine and Proline Metabolism
[2] = De novo fatty acid biosynthesis

C=C(C)[C@@H]1CC[C@]2(C(=O)OCCOC(=O)c3cnc(C)cn3)CC[C@]3(C)[C@H](CC[C@@H]4[C@@]5(C)CCC(=O)C(C)(C)[C@@H]5CC[C@]43C)[C@@H]12 [BoA2C, (5-Methylpyrazin-2-acyloxy)-ethyl-3-oxolup-20(29)-en-28-oate]
IC50 (MCF-7): 3.39 ± 0.07 µM | fold change of 4-Acetamidobutanoic acid (M4) (MCF-7 cells; [1]): 2.37 | fold change of 5′-Methylthioadenosine (M10) (MCF-7 cells; [1]): 28.55 | fold change of L-4-Hydroxyglutamate semialdehyde (M6) (MCF-7 cells; [1]): 1.99 | fold change of L-Arginine (M14) (MCF-7 cells; [1]): 1.90 | fold change of L-Glutamic acid (M18) (MCF-7 cells; [1]): 1.94 | fold change of L-Glutamine (M7) (MCF-7 cells; [1]): 2.33 | fold change of L-Methionine (M12) (MCF-7 cells; [1]): 3.63 | fold change of L-Proline (M5) (MCF-7 cells; [1]): 2.40 | fold change of 3,7-Dihydroxycoprostanic Acid (M21) (MCF-7 cells; Bile acid biosynthesis): 1027.39 | fold change of 3a,7a-Dihydroxy-5b-cholestan-26-al (M13) (MCF-7 cells; Bile acid biosynthesis): 241.46 | fold change of 3 alpha,7 alpha,26-Trihydroxy-5beta-cholestane (M3) (MCF-7 cells; Bile acid biosynthesis): 362.98 | fold change of 7a,12a-Dihydroxy-cholestene-3-one (M16) (MCF-7 cells; Bile acid biosynthesis): 17.04 | fold change of 7a-Hydroxy-5b-cholestan-3-one (M25) (MCF-7 cells; Bile acid biosynthesis): 9.40 | fold change of 7a-Hydroxy-cholestene-3-one (M28) (MCF-7 cells; Bile acid biosynthesis): 4.47 | fold change of 7alpha-Hydroxycholesterol (M17) (MCF-7 cells; Bile acid biosynthesis): 92.35 | fold change of 27-Deoxy-5b-cyprinol (M24) (MCF-7 cells; Bile acid biosynthesis): 2.03 | fold change of Cholesterol (M1) (MCF-7 cells; Bile acid biosynthesis): 7.69 | fold change of Cholic acid (M2) (MCF-7 cells; Bile acid biosynthesis): 2.55 | fold change of Lithocholic acid (M27) (MCF-7 cells; Bile acid biosynthesis): 108.49 | fold change of Palmitic acid (M11) (MCF-7 cells; [2]): 23.17 | fold change of alpha-Linolenic acid (M26) (MCF-7 cells; [2]): 2.19 | fold change of 2-trans-dodecenoyl-CoA (M22) (MCF-7 cells; Fatty Acid Metabolism): 1.93 | fold change of 3-Oxotetradecanoyl-CoA (M15) (MCF-7 cells; Fatty Acid Metabolism): 1.77 | fold change of 13-HODE (M23) (MCF-7 cells; Linoleate metabolism): 108.54 | fold change of 13-Hpode (M9) (MCF-7 cells; Linoleate metabolism): 23.04 | fold change of Ascorbic Acid (M19) (MCF-7 cells; Linoleate metabolism): 2.88 | fold change of Linoleic acid (M20) (MCF-7 cells; Linoleate metabolism): 159.58 | fold change of LysoPC(P-18:0/0:0) (M8) (MCF-7 cells; Linoleate metabolism): 3.29
